Results: patent publication US20240122865A1, “Methods of Protecting RNA” (Pfizer Inc., priority 2021, published 2024)

Key:
Assay type in all cases: biochemical, Trichoderma atroviride
[1] = test system: FgenL model RNA; assay: TapeStation Assay, FgenL model RNA; design: Conc. FgenL#1 / Conc. FgenL#2: unit not given here; details: for % Control N = 1 / % Control N = 2 / % Control Average: FgenL RNA, 20 mM amino acids, 50 mM CAPS pH 11, 50° C. 15 min; for % Control N = 1 / % Control N = 2: vs Time 0; for % Control Average: vs Time 0, Avg N=2; for Conc. FgenL#1 / Conc. FgenL#2: intact FgenL RNA after 15 min at 50° C.; for Conc. FgenL#1: 20 mM amino acids in 50 mM CAPS pH 11, run #1; for Conc. FgenL#2: 20 mM amino acids in 50 mM CAPS pH 11, run #2
Procedure: (§1) These assays were performed with amino acids and compared to a no-degradation baseline control to gauge degree of protection imparted by the amino acid. Multiple functional assay approaches were used where differing endpoints were measured including a droplet digital PCR (ddPCR) assay where intact RNA sequence was quantitated, a size exclusion base hydrolysis degradation assay that used a size exclusion column to determine the degree of degradation occurring to an mRNA construct, and finally, a TapeStation assay that utilizes capillary electrophoresis and optical detection to measure intact RNA. […] Affinity selection by mass spectrometry (ASMS), native electrospray ionization mass spectrometry (nESI-MS) and nuclear magnetic resonance (NMR) may be used as several complementary approaches to ascertain compound binding to RNA. The latter techniques utilize MS to measure mass of bound compound alone (ASMS), or mass of RNA and bound compound (nESI-MS). The nESI-MS and NMR studies may be conducted to provide direct analytical quantification of resulting complex via measurement of mass (nESI-MS) or chemical shifts (NMR). The ASMS experiment is conducted to determine saturation binding of the compound to RNA where resulting apparent binding constants (KD,App) may be generated. Further descriptions of the functional and binding assays are provided in the section below.
(§2) In principle, samples are loaded to the instrument where electrophoresis separates component RNA's on the basis of mass, and subsequently analyzes these optically as they travel through the capillary.
(§3) RNA samples were diluted to the appropriate concentration to fall within the linear range of detection for the RNA ScreenTape Assay. Model Chi18 or FgenL RNAs were diluted to 50 ng/μL in 50 mM CAPS buffer pH 11. Amino acid stocks were made up in 50 mM CAPS pH 11 and re-adjusted to >pH 11 after solubilization. […] The samples were aliquoted to PCR tubes for each time point (Time 0 or 15 minutes). Degradation reaction: Samples were incubated at 50° C. for 0 to 15 minutes in a thermocycler, removed at the appropriate time point and placed on ice. Time 0 samples remained on ice.

[2] = test system: Chi18 model RNA; assay: TapeStation Assay, Chi18 model RNA; design: Conc. chi18#1 / Conc. chi18#2: unit not given here; details: for % Control N = 1 / % Control N = 2 / % Control Avg.: Chi18 RNA, 20 mM amino acids, 50 mM CAPS pH 11, 50° C. 15 min; for % Control N = 1 / % Control N = 2: vs Time 0; for % Control Avg.: vs Time 0, Avg N=2; for Conc. chi18#1: 20 mM amino acids in 50 mM CAPS pH 11, run #1
Procedure: as §1, §2, §3

[3] = target: Chi18 model RNA; assay: Droplet Digital Polymerase Chain Reaction (ddPCR) Assay, Chi18; details: percent protection, pH 11.0, 30° C., 16 hours, n = 2
Procedure: (§4) The ddPCR assays measure RNA integrity by converting intact RNA to cDNA by reverse transcription, then performing digital PCR in thousands of nanoliter-sized droplets for each sample. PCR is performed within each droplet, which allows for more sensitive detection of subtle changes in RNA concentration compared to traditional PCR or qPCR. Additionally, primers/probes specific to the 5′ end of the RNA/cDNA transcript(s) are used to assess fragment integrity—e.g. degraded RNA will have fewer 5′ positive droplets. The BioRad QX200 Droplet Digital PCR System was used for the ddPCR workflow.
(§5) Basic assay procedure: RNA samples (Chi18 or FgenL fragments) were diluted to 25 fg/μL or 10 fg/μL, respectively, in 50 mM […] buffer pH 11.0. Amino acid stocks were made up in 50 mM CAPS buffer, pH 11.0 and subsequently re-adjusted to pH 11.0, post solubilization. Amino acid stocks were tested in a dose-response format to determine EC50. An amino acid dilution plate containing a ˜300 mM (or appropriate) top-concentration of amino acid in 50 mM CAPS buffer was serially (half-log) diluted for 10 times. 0.6 μL of this compound dilution plate was spotted into a 96-well PCR plate (Thermo). Sample RNAs were added (6 μL) and incubated with test amino acid as described below.
(§6) Degradation reaction: Treated RNAs were incubated for 16 hours at 30° C. for Chi18 samples or 44° C. for FgenL samples. Upon completion of the degradation reaction, cDNA was made from the intact RNA by Reverse Transcription and ddPCR run for each sample (96 well plates). Positive 5′ droplet values were divided by the total accepted droplet values for each sample and a ratio value generated for each sample.
(§7) EC50 was determined by using a four parameter logistic equation: Y=A+((B−A)/(1+(C/X)D)); where Y is percent protection, X is compound concentration, A and B are minimum and maximum asymptotes, respectively, C is EC50, and D is Hill slope.

[4] = test system: FgenL model RNA; details: percent protection, pH 11.0, 44° C., 16 hours, n = 2
Procedure: as §4, §5, §6, §7

[5] = intact Chi18 RNA after 15 min at 50° C.

| SMILES | % Control N = 1 [1] | % Control N = 2 [1] | % Control Average [1] | Conc. FgenL#1 [1] | Conc. FgenL#2 [1] | % Control N = 1 [2] | % Control N = 2 [2] | % Control Avg. [2] | Conc. chi18#1 [2, 5] | EC50 [3] | Conc. chi18#2 ([2]; intact Chi18 RNA after 15 min at 50° C., 20 mM amino acids in 50 mM CAPS pH 11, run #2) | EC50 [4] |
| --- | --- | --- | --- | --- | --- | --- | --- | --- | --- | --- | --- | --- |
| O[C@H](CS)[C@H](O)CS (racemic) [DTT, dithiothreitol] | 8.3% | 9.0% | 8.7% | 2.86 | 3.13 | 10.7% | 10.7% | 10.7% | 5.68 | – | – | – |
| N[C@@H](CSSC[C@H](N)C(=O)O)C(=O)O [Cystine] | 75.9% | 64.6% | 70.2% | 26.2 | 22.4 | 53.1% | 42.7% | 47.9% | 28.3 | > 29 mM | 22.6 | > 30 mM |
| O=C(O)CCP(CCC(=O)O)CCC(=O)O [TCEP, tris(2-carboxyethyl)phosphine] | 5.0% | 4.0% | 4.5% | 1.71 | 1.38 | 2.6% | 2.6% | 2.6% | 1.41 | > 30 mM | – | > 30 mM |
